The values that follow come from patent US7491794B2, “Macrocyclic compounds as inhibitors of viral replication” (Intermune, Inc., priority 2003, dated 2009).

Molecules are shown by their SMILES. Read-outs that look alike come from different tables or passages of the source.

The test system of assay [1] is HCV sub-genomic replicon, GS4.3. Kind of assay: Quantitation by ELISA of NPTII in the HCV sub-genomic replicon, GS4.3, Section B. It is filed as cell-based. Conditions: Hepatitis C virus, read-out: Replicon EC50. In short, it runs like this: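 GS4.3 cells (HuH-7 carrying HCV 1377/NS3-3′ replicon) were treated 72 h at 37 °C with inhibitors in 3-fold dilutions, 1% DMSO, no G418. Lysate NPTII was measured by ELISA (TMB, 450 nm). Signal as % of DMSO control; EC50 from 4-parameter fit.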
A general note: ELISA stands for enzyme-linked immunosorbent assay.

The next assay deals with T1, NS3-NS4A protease (Hepatitis C virus genotype 1a, UniProt P27958).
T1 construct: Recombinant E. coli or Baculovirus full-length NS3 was diluted to 3.33 μM with assay buffer; made in house; host or cells: E. coli or baculovirus (BV) system
Kind of assay: NS3-NS4A protease assay (NS3 inhibition assay, RETS1 substrate), Section B. The class given is biochemical. The following applies: read-out: NS3-NS4A IC50. An outline of the steps: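 Full-length NS3 (E. coli or baculovirus) precomplexed with excess NS4A-2 peptide, run at 2 nM (E. coli) or 3 nM (BV) NS3; compounds pre-incubated 10 min at room temperature before RETS1 substrate. Fluorescence (ex 335/em 495 nm) read kinetically 30 min; IC50 from four-parameter fit, converted to Ki via Ki=IC50/(1+[S]/Km).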

T1 sequence (P27958 1027-1657): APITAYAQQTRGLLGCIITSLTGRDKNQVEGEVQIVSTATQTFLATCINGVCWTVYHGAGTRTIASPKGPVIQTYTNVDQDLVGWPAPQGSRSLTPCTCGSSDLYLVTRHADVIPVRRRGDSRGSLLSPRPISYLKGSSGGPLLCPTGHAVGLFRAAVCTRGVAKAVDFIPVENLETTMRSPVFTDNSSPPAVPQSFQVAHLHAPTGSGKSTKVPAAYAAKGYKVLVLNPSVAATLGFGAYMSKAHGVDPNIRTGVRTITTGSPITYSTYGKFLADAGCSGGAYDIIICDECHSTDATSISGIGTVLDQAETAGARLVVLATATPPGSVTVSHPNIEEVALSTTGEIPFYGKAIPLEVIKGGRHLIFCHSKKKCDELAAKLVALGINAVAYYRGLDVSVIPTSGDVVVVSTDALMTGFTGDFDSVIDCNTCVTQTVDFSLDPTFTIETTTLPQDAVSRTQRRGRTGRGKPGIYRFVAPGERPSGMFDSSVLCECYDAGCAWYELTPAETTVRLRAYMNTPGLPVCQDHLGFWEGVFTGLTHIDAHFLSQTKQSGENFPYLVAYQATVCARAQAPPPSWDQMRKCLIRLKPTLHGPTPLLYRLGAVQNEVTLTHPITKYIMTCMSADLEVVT

The term EC50 denotes the midpoint of the concentration-response curve. Broadly, the IC50 is the concentration that gives 50% inhibition. `COc1cccc(CC(=O)N[C@H]2CCCCC/C=C\[C@@H]3C[C@@]3(C(=O)NS(=O)(=O)C3CC3)NC(=O)[C@@H]3C[C@@H](OC(=O)N4Cc5cccc(F)c5C4)CN3C2=O)c1` [AR00340178, (1S,4R,6S,14S,18R)-4-Fluoro-1,3-dihydro-isoindole-2-carboxylic acid 4-cyclopropanesulfonylaminocarbonyl-14-[2-(3-methoxy-phenyl)-acetylamino]-2,15-dioxo-3,16-diaza-tricyclo[14.3.0.0^4,6]nonadec-7-en-18-yl ester]: the EC50 in assay [1] (GS4.3 cells, 72 h incubation) is less than 0.1 µM. In addition, at NS3-NS4A protease, the IC50 is less than 0.1 µM.

In the case of `O=C(N[C@H]1CCCCC/C=C\[C@@H]2C[C@@]2(C(=O)NS(=O)(=O)C2CC2)NC(=O)[C@@H]2C[C@@H](OC(=O)N3CCc4ccccc4C3)CN2C1=O)OC1CCOCC1` [AR00320082, (1S,4R,6S,14S,18R)-3,4-Dihydro-1H-isoquinoline-2-carboxylic acid 4-cyclopropanesulfonylaminocarbonyl-2,15-dioxo-14-(tetrahydro-pyran-4-yloxycarbonylamino)-3,16-diaza-tricyclo[14.3.0.0^4,6]nonadec-7-en-18-yl ester], the EC50 in assay [1] (GS4.3 cells, 72 h incubation) was less than 0.1 µM. Besides, the IC50 on NS3-NS4A protease is less than 0.1 µM.

On to `Cc1ccc(S(=O)(=O)NC(=O)[C@@]23C[C@H]2/C=C\CCCCC[C@H](NC(=O)OC(C)(C)C)C(=O)N2C[C@H](OC(=O)N4CCc5ccccc5C4)C[C@H]2C(=O)N3)cc1` [AR00320549, (1S,4R,6S,14S,18R)-3,4-Dihydro-1H-isoquinoline-2-carboxylic acid 14-tert-butoxycarbonylamino-2,15-dioxo-4-(toluene-4-sulfonylaminocarbonyl)-3,16-diaza-tricyclo[14.3.0.0^4,6]nonadec-7-en-18-yl ester], for which, in assay [1] (72 h), the EC50 was less than 0.1 µM. The half-inhibitory concentration (IC50) at NS3-NS4A protease is less than 0.1 µM.

Regarding `CC(C)(C)OC(=O)N[C@H]1CCCCC/C=C\[C@@H]2C[C@@]2(C(=O)NS(=O)(=O)C2CC2)NC(=O)[C@@H]2C[C@@H](OC(=O)N3Cc4ccc(C#N)cc4C3)CN2C1=O` [AR00365082, (1S,4R,6S,14S,18R)-5-Cyano-1,3-dihydro-isoindole-2-carboxylic acid 14-tert-butoxycarbonylamino-4-cyclopropanesulfonylaminocarbonyl-2,15-dioxo-3,16-diaza-tricyclo[14.3.0.0^4,6]nonadec-7-en-18-yl ester], in assay [1] (GS4.3 cells, 72 h incubation), the EC50 is less than 1 µM. Moreover, on NS3-NS4A protease, the IC50 was less than 0.1 µM.

For the molecule `CN1CCN(c2ccc3c(c2)CN(C(=O)O[C@@H]2C[C@H]4C(=O)N[C@]5(C(=O)NS(=O)(=O)C6CC6)C[C@H]5/C=C\CCCCC[C@H](NC(=O)OC(C)(C)C)C(=O)N4C2)C3)CC1` [AR00340495, (1S,4R,6S,14S,18R)-5-(4-Methyl-piperazin-1-yl)-1,3-dihydro-isoindole-2-carboxylic acid 14-tert-butoxycarbonylamino-4-cyclopropanesulfonylaminocarbonyl-2,15-dioxo-3,16-diaza-tricyclo[14.3.0.0^4,6]nonadec-7-en-18-yl ester], the concentration giving a half-maximal response (EC50) in assay [1] (GS4.3 cells, 72 h incubation) is less than 0.1 µM. For the same molecule, the IC50 on NS3-NS4A protease was less than 0.1 µM.

Consider `O=C(N[C@H]1CCCCC/C=C\[C@@H]2C[C@@]2(C(=O)O)NC(=O)[C@@H]2C[C@@H](OC(=O)N3Cc4ccc(Cl)cc4C3)CN2C1=O)O[C@@H]1CCOC1` [AR00320448, (1S,4R,6S,14S,18R)-18-(5-Chloro-1,3-dihydro-isoindole-2-carbonyloxy)-2,15-dioxo-14-(tetrahydro-furan-3R-yloxycarbonylamino)-3,16-diaza-tricyclo[14.3.0.0^4,6]nonadec-7-ene-4-carboxylic acid], for which the 50% effective concentration (EC50) in assay [1] (GS4.3 cells, 72 h incubation) is less than 10 µM. The concentration for half-maximal inhibition (IC50) on NS3-NS4A protease is less than 1 µM.

As for `CC(C)(C)OC(=O)N[C@H]1CCCCCC=C[C@@H]2C[C@@]2(C(=O)NS(=O)(=O)C2CC2)NC(=O)[C@@H]2C[C@@H](OC(=O)N3Cc4ccccc4C(C)(C)C3)CN2C1=O` [AR00312025, (1S,4R,6S,14S,18R)-4,4-Dimethyl-3,4-dihydro-1H-isoquinoline-2-carboxylic acid 14-tert-butoxycarbonylamino-4-cyclopropanesulfonylaminocarbonyl-2,15-dioxo-3,16-diaza-tricyclo[14.3.0.0^4,6]nonadec-7-en-18-yl ester], the EC50 in assay [1] (GS4.3 cells, 72 h incubation) is less than 0.1 µM. The half-inhibitory concentration (IC50) on NS3-NS4A protease was less than 0.1 µM.

`CC(C)(C)OC(=O)N[C@H]1CCCCC/C=C\[C@@H]2C[C@@]2(C(=O)NS(=O)(=O)C(F)(F)F)NC(=O)[C@@H]2C[C@@H](OC(=O)N3Cc4ccccc4C3)CN2C1=O` [AR00340479, (1S,4R,6S,14S,18R)-1,3-Dihydro-isoindole-2-carboxylic acid 14-tert-butoxycarbonylamino-2,15-dioxo-4-trifluoromethanesulfonylaminocarbonyl-3,16-diaza-tricyclo[14.3.0.0^4,6]nonadec-7-en-18-yl ester]: the concentration giving a half-maximal response (EC50) in assay [1] (GS4.3 cells, 72 h incubation) is less than 0.1 µM. For the same molecule, the 50% inhibitory concentration (IC50) at NS3-NS4A protease is less than 0.1 µM.

`CC(OC(=O)N[C@H]1CCCCC/C=C\[C@@H]2C[C@@]2(C(=O)NS(=O)(=O)C2CC2)NC(=O)[C@@H]2C[C@@H](OC(=O)N3CCc4ccccc4C3)CN2C1=O)C(F)(F)F` (stereo partly drawn) [AR00320581, (1S,4R,6S,14S,18R)-3,4-Dihydro-1H-isoquinoline-2-carboxylic acid 4-cyclopropanesulfonylaminocarbonyl-2,15-dioxo-14-(2,2,2-trifluoro-1-methyl-ethoxycarbonylamino)-3,16-diaza-tricyclo[14.3.0.0^4,6]nonadec-7-en-18-yl ester]: in assay [1] (GS4.3 cells, 72 h incubation), the EC50 is less than 0.1 µM. Also, the IC50 at NS3-NS4A protease is less than 0.1 µM.

For the molecule `O=C(CC1CCCC1)N[C@H]1CCCCC/C=C\[C@@H]2C[C@@]2(C(=O)NS(=O)(=O)C2CC2)NC(=O)[C@@H]2C[C@@H](OC(=O)N3Cc4ccc(Cl)cc4C3)CN2C1=O` [AR00334226, (1S,4R,6S,14S,18R)-5-Chloro-1,3-dihydro-isoindole-2-carboxylic acid 14-(2-cyclopentyl-acetylamino)-4-cyclopropanesulfonylaminocarbonyl-2,15-dioxo-3,16-diaza-tricyclo[14.3.0.0^4,6]nonadec-7-en-18-yl ester], the half-maximal effective concentration (EC50) in assay [1] (GS4.3 cells, 72 h incubation) was less than 0.1 µM. Also, the IC50 on NS3-NS4A protease is less than 0.1 µM.

For `O=C(Cc1ccccc1)N[C@H]1CCCCC/C=C\[C@@H]2C[C@@]2(C(=O)NS(=O)(=O)C2CC2)NC(=O)[C@@H]2C[C@@H](OC(=O)N3Cc4cccc(F)c4C3)CN2C1=O` [AR00340188, (1S,4R,6S,14S,18R)-4-Fluoro-1,3-dihydro-isoindole-2-carboxylic acid 4-cyclopropanesulfonylaminocarbonyl-2,15-dioxo-14-phenylacetylamino-3,16-diaza-tricyclo[14.3.0.0^4,6]nonadec-7-en-18-yl ester], in assay [1] (GS4.3 cells, 72 h incubation), the concentration for a half-maximal effect (EC50) was less than 1 µM. For the same molecule, at NS3-NS4A protease, the IC50 was less than 0.1 µM.

On to `CC(C)(C)OC(=O)N[C@H]1CCCCC/C=C\[C@@H]2C[C@@]2(C(=O)NS(=O)(=O)c2ccc([N+](=O)[O-])cc2)NC(=O)[C@@H]2C[C@@H](OC(=O)N3Cc4ccccc4C3)CN2C1=O` [AR00334249, (1S,4R,6S,14S,18R)-1,3-Dihydro-isoindole-2-carboxylic acid 14-tert-butoxycarbonylamino-4-(4-nitro-benzenesulfonylaminocarbonyl)-2,15-dioxo-3,16-diaza-tricyclo[14.3.0.0^4,6]nonadec-7-en-18-yl ester], for which, in assay [1] (GS4.3 cells, 72 h incubation), the concentration for a half-maximal effect (EC50) is less than 1 µM. Also, the IC50 on NS3-NS4A protease was less than 0.1 µM.

Take `O=C(CCC(F)(F)F)N[C@H]1CCCCC/C=C\[C@@H]2C[C@@]2(C(=O)NS(=O)(=O)C2CC2)NC(=O)[C@@H]2C[C@@H](OC(=O)N3Cc4cccc(F)c4C3)CN2C1=O` [AR00338071, (1S,4R,6S,14S,18R)-4-Fluoro-1,3-dihydro-isoindole-2-carboxylic acid 4-cyclopropanesulfonylaminocarbonyl-2,15-dioxo-14-(4,4,4-trifluoro-butyrylamino)-3,16-diaza-tricyclo[14.3.0.0^4,6]nonadec-7-en-18-yl ester]: the EC50 in assay [1] (GS4.3 cells, 72 h incubation) was less than 0.1 µM. For the same molecule, the IC50 at NS3-NS4A protease is less than 0.1 µM.

For the molecule `CC(C)(C)OC(=O)N[C@H]1CCCCC/C=C\[C@@H]2C[C@@]2(C(=O)O)NC(=O)[C@@H]2C[C@@H](OC(=O)N3Cc4cccc(F)c4C3)CN2C1=O` [AR00365369, (1S,4R,6S,14S,18R)-14-tert-Butoxycarbonylamino-18-(4-fluoro-1,3-dihydro-isoindole-2-carbonyloxy)-2,15-dioxo-3,16-diaza-tricyclo[14.3.0.0^4,6]nonadec-7-ene-4-carboxylic acid], the EC50 in assay [1] (GS4.3 cells, 72 h incubation) was less than 1 µM. Besides, the 50% inhibitory concentration (IC50) at NS3-NS4A protease is less than 0.1 µM.

Take `O=C(N[C@H]1CCCCC/C=C\[C@@H]2C[C@@]2(C(=O)O)NC(=O)[C@@H]2C[C@@H](OC(=O)N3CCc4ccccc4C3)CN2C1=O)O[C@@H]1CCOC1` [AR00304127, (1S,4R,6S,14S,18R)-18-(3,4-Dihydro-1H-isoquinoline-2-carbonyloxy)-2,15-dioxo-14-(tetrahydro-furan-3R-yloxycarbonylamino)-3,16-diaza-tricyclo[14.3.0.0^4,6]nonadec-7-ene-4-carboxylic acid]: the EC50 in assay [1] (GS4.3 cells, 72 h incubation) is less than 10 µM. In addition, on NS3-NS4A protease, the IC50 was less than 1 µM.

Turning to `CC(C)(C)NC(=O)N[C@H]1CCCCC/C=C\[C@@H]2C[C@@]2(C(=O)O)NC(=O)[C@@H]2C[C@@H](OC(=O)N3Cc4ccc(Cl)cc4C3)CN2C1=O` [AR00320449, (1S,4R,6S,14S,18R)-14-(3-tert-Butyl-ureido)-18-(5-chloro-1,3-dihydro-isoindole-2-carbonyloxy)-2,15-dioxo-3,16-diaza-tricyclo[14.3.0.0^4,6]nonadec-7-ene-4-carboxylic acid], the EC50 in assay [1] (GS4.3 cells, 72 h incubation) is less than 10 µM. Also, the IC50 on NS3-NS4A protease was less than 0.1 µM.
